Patent publication US20030005484A1, “Microbiocidal and pesticidal aromatic aldehydes” (ProGuard, Inc., priority 1994, published 2003)
Several values for one entry are separate records, joined by “and”; a condition that tells them apart may be missing. Equal entries are not always repeated.

Columns and labels:
powdery mildew = powdery mildew on roses, disease rating / MPDC after foliar spray; type: in vivo, Sphaerotheca pannosa; conditions: for Powdery Mildew, Post (rating): ~100 ml spray; for Mean % Disease Control, rose powdery mildew: single 100 ml foliar spray
Procedure: Each formulation is evaluated for its effect on specific pests and/or plant host using any of the compounds of formula (1) as well as other components of the formulation such as Tween 80 and/or sodium bicarbonate, with the combination and effective amount of each component adapted for a particular application to minimize toxicity while maintaining or increasing the antipathogenic effect of the formulation. The effective amount of each component may be determined by systematically varying the amount of that component in a test formulation, treating a plant of interest with the test formulation, and monitoring the level of pest infestation compared to an untreated control plant. An effective amount of a test component is identified as the amount that controls the growth of the pathogen on the plant host, thus reducing the disease rating of the plant. The mean percentage disease […] (MPDC) can be calculated for each particular application. MPDC is defined by the formula: [formula] Eight cultivars of rose were tested to investigate the effect of a cinnamic aldehyde/NaHCO3 formulation on rust and spores. The cultivars used included Moss unnamed (Moss), […], Rosette Delize (Hybrid Tea), Rosa Rugosa Rubra (Rugosa), Abel Morrison (Hybrid perpetual), John Laing, Betty Prior, and Rose de Roi. […] The Hybrid Tea and Hybrid perpetual were rated 3 and the Rugosa was rated 1. […] Control plants received no treatment. […] Moreover, the treatment appeared to have induced systemic resistance. […] Plants were an average of 0.86 m apart. […] Controls were untreated plants. […] Weekly reviews were made of the various plants. […] of infected rose in dedicated experimental rose gardens were used. Four Mrs. John Laing (Hybrid perpetual) and two Marchionese of Londonderry (Hybrid perpetual) rose plants were treated with one of two formulations of coniferyl aldehyde. […] The first two Mrs. […] Mrs. […] Both Marchionese of Londonderry plants (P5 and P6) were rated 5 for powdery mildew and rust after Paulus and Nelson (supra). Two treatment formulae were used for this trial. […] Control plants were sprayed with water alone. The change in the rating from pre-treatment to post-treatment was calculated as the mean percentage of disease control (MPDC) as described herein. A three treatment experiment with cinnamic aldehyde formula, coniferyl aldehyde formula and combined cinnamic and coniferyl aldehyde formula was carried out on field grown roses known to be susceptible to powdery mildew. The plants were blocked by variety before fungicide treatments and were randomized as to the plants. Two varieties were used in each of the three experiments described below. […] In experiment 3 Comte de Chambord (Portland) and Madame Pierre Oger (Bourbon) were used. In Experiment 1, the effect of cinnamic aldehyde alone and in combination with Tween 80 and/or NaHCO3 component was evaluated in experiment 2 the effect of coniferyl aldehyde alone and in combination with Tween 80 and/or NaHCO3 was evaluated and in experiment 3 a combination of cinnamic aldehyde and coniferyl aldehyde with Tween 80 and/or NaHCo3 was evaluated. […] See Table 3 for the treatment protocol; formula 1 was used for these experiments. […] Plants were evaluated using the Paulus/Nelson scale just prior to and four days after treatment. […] Moreover, cinnamic aldehyde, coniferyl aldehyde, Tween 80 and NaHCO3 are used in the food industry and there is likely to be little toxicological risk to the consumer or handler from any horticultural or food crop sprayed in this way. Similarly, as these chemicals leave no toxic residue, there is little chance of any detrimental effect on the wider environment, and their use is likely to be compatible with current biological control methods such as beneficial insects and/or microorganisms.

rust = rust (and spores) on roses, disease rating / MPDC after foliar spray; type: in vivo, Phragmidrium mucronatrum
Procedure: Each formulation is evaluated for its effect on specific pests and/or plant host using any of the compounds of formula (1) as well as other components of the formulation such as Tween 80 and/or sodium bicarbonate, with the combination and effective amount of each component adapted for a particular application to minimize toxicity while maintaining or increasing the antipathogenic effect of the formulation. The effective amount of each component may be determined by systematically varying the amount of that component in a test formulation, treating a plant of interest with the test formulation, and monitoring the level of pest infestation compared to an untreated control plant. An effective amount of a test component is identified as the amount that controls the growth of the pathogen on the plant host, thus reducing the disease rating of the plant. The mean percentage disease […] (MPDC) can be calculated for each particular application. MPDC is defined by the formula: [formula] Eight cultivars of rose were tested to investigate the effect of a cinnamic aldehyde/NaHCO3 formulation on rust and spores. The cultivars used included Moss unnamed (Moss), […], Rosette Delize (Hybrid Tea), Rosa Rugosa Rubra (Rugosa), Abel Morrison (Hybrid perpetual), John Laing, Betty Prior, and Rose de Roi. […] The Hybrid Tea and Hybrid perpetual were rated 3 and the Rugosa was rated 1. […] Control plants received no treatment. […] Moreover, the treatment appeared to have induced systemic resistance. […] Plants were an average of 0.86 m apart. […] Controls were untreated plants. […] Weekly reviews were made of the various plants. […] Six cultivars of infected rose in dedicated experimental rose gardens were used. Four Mrs. John Laing (Hybrid perpetual) and two Marchionese of Londonderry (Hybrid perpetual) rose plants were treated with one of two formulations of coniferyl aldehyde. […] The first two Mrs. […] Mrs. […] Both Marchionese of Londonderry plants (P5 and P6) were rated 5 for powdery mildew and rust after Paulus and Nelson (supra). Two treatment formulae were used for this trial. […] Control plants were sprayed with water alone. The change in the rating from pre-treatment to post-treatment was calculated as the mean percentage of disease control (MPDC) as described herein.

aphids = aphids on sprayed roses; type: in vivo; conditions: plants P3 (T2) and P4 (T1), each with >35 insects before treatment
grape phylloxera eggs = test: whole plant or invertebrate
Procedure: Mixed age groups of 60 grape phylloxera eggs were established on filter paper (Whatman #1, 5.5 cm circles) in 50×9 mm sealed plastic petri dishes treated with 100 μl of solution. A selected concentration of a test formulation of 400 μl was added to the filter disk and the dish closed with the petri dish cover and placed in a plastic container box. After 6 hours, the box was placed in an environmental chamber at 24° C. in the dark. The eggs were placed in groups of 10. After one week, the percentage of hatch is determined. In an initial test, doses from 0.1 to 25,000 ppm cinnamic aldehyde in 6% NaHCO3 and 2% Tween 80 were evaluated with a single group of eggs at each dosage. Three replicates of the experiment were performed. […] LD50 and LD95 were determined by probit analysis.
Grape phylloxera eggs were treated with cinnamaldehyde (CNMA) in a 6% NaHCO3, 2% Tween-80 formulation in a laboratory bioassay. Mortality of the eggs was indicated by failure of the egg shell to split. […] Leaves of one-year-old greenhouse Vitis vinifera cultivar Merlot vines heavily infested with grape phylloxera were sprayed to run-off with a CNMA treatment using the same formulation. […] Roots taken from plants 1, 2 and 5 weeks after CNMA or other treatments were placed in Petri dish bioassays and infested with untreated phylloxera eggs.
Eggs of various age classes were placed on Whatman #1 filter paper moistened with enough treatment solution to form a meniscus about halfway up the sides of the eggs. The pieces of filter paper with eggs were maintained in sealed plastic Petri dishes at […] until they were 7 days old and then hatched individuals were counted. Hatch was considered successful if the […]

[1] = test system: thrips insects (Frankliniella occidentalis); test: residual activity on filter paper against thrips; type: in vivo; conditions: residue on filter paper, rehydrated 24 and 72 hours after spraying; thrips mortality after one hour
Procedure: In the first experiment, two ml of two concentrations of CNMA (0.3 and 1%) were sprayed on filter paper (Whatman). As a negative control, two ml of water also were sprayed on filter paper. Twenty-four hours later, two ml of water were sprayed on treatment and control filter paper, which were then dried for 30 min. Approximately 30 thrips insects (Frankliniella occidentalis) were introduced and the number of F. occidentalis were observed after one hour. Mean mortality was calculated for each treatment.
After 72 hours, the treatment filter papers were flipped over and only the negative control filter paper and the filter paper treated with 1% CNMA were sprayed with 2 ml of water and allowed to dry for 30 minutes. Approximately 30 thrips were introduced to the two treated filter papers and after one hour the number of dead F. occidentalis were observed and the mean mortality calculated for each treatment. A similar assay was conducted using a-hexyl cinnamaldehyde. Mean mortality was higher for rehydrated filter papers compared to non-rehydrated filter papers over time.

[2] = test system: melon aphid (Aphis gossypii Glover); test: melon aphid on chrysanthemum leaves, 5% HCA formulations; type: in vivo; conditions: 5% HCA (emulsion with 1% Tween 20 in water, or microencapsulated); 24 hours
Procedure: For each test, treatment cartons received the active ingredient as a 5% aqueous emulsion or as microcapsules in either beeswax or carnauba wax. The negative control was a water only treatment. Sprays of each treatment were applied using a laboratory spray tower calibrated to spray the field equivalent of 113 liters per acre. The paper carton arenas were maintained at room temperature. Experimental cartons were examined at 24 hours post-treatment and % mortality determined (see FIG. 3). Every treatment regimen killed 100% of the melon aphids at 24 hours.

[3] = 25° C; cited from earlier work
[4] = T1 low dose: 5 g coniferyl aldehyde, 10 g Tween 80, 80 g NaHCO3 per 1000 g, plants P1, P4, P6
[5] = T2 high dose: 100 g coniferyl aldehyde, 20 g Tween 80, 120 g NaHCO3 per 1000 g, plants P2, P3, P5
[6] = baseline before T1 low dose, plants P1, P4, P6
[7] = baseline before T2 high dose, plants P2, P3, P5
[8] = 1000 ppm in 6% NaHCO3, 2% Tween 80, 7 days

Compound: COc1cc(/C=C/C=O)ccc1O [coniferyl aldehyde]
- Powdery Mildew, Post (rating) (powdery mildew; [4]): 2 (2=26-50) and 1 (1=1-25)
- Powdery Mildew, Change in rating (powdery mildew; [5]): 3 and 4
- Powdery Mildew, Post (rating) (powdery mildew; [5]): 2 (2=26-50) and 1 (1=1-25)
- Mean % Disease Control, rose powdery mildew (powdery mildew; aldehyde 5 g (mixture 2.5 g + 2.5 g) with NaHCO3 (80 g), four days): 44%
- Mean % Disease Control, rose powdery mildew (powdery mildew; aldehyde 5 g (mixture 2.5 g + 2.5 g) with T80 (10 g), four days): 44%
- Mean % Disease Control, rose powdery mildew (powdery mildew; aldehyde 5 g (mixture 2.5 g + 2.5 g) with T80 + NaHCO3 (formulas G, M, Q), four days): 81%
- Mean % Disease Control, rose powdery mildew (powdery mildew; aldehyde 5 g (mixture 2.5 g + 2.5 g), no additive, rated four days after treatment): 56%
- Powdery Mildew, Pre (rating) (powdery mildew; [6]): 3 (3=51-75) and 4 (4=76-90)
- Powdery Mildew, Pre (rating) (powdery mildew; [7]): 5 (5=>90% total leaves per bush)
- Rust (rating), Change (rust; [4]): 1 and 2
- Rust (rating), Change (rust; [5]): 3 and 4
- Rust (rating), Post (rust; [5]): 2 (2=26-50) and 1 (1=1-25)
- Rust (rating), Pre (rust; [6]): 3 (3=51-75) and 4 (4=76-90)
- Rust (rating), Pre (rust; [7]): 5 (5=>90% total leaves per bush)
- aphids on treated rose plants (aphids): eliminated
- eggs hatched incompletely (IH) (grape phylloxera eggs; [8]): 85%
- nymphs that died in the shell (DIS) (grape phylloxera eggs; [8]): 12%
- nymphs that died in the shell (DIS) (grape phylloxera eggs; 5000 ppm aldehyde in 6% NaHCO3, 2% Tween 80, 7 days): 10%

Compound: CCCCCC/C(C=O)=C/c1ccccc1 [HCA, 2-hexyl-3-phenyl-2-propenal]
- egg hatch failure / mortality at 560 ppm (grape phylloxera eggs; 560 ppm, egg tests with CNMA analogs): no hatch failure at 560 ppm; rapid
- mortality at 100 ppm (grape phylloxera eggs; Daktulosphaira vitifoliae, read-out: rapid nymphal mortality): 100%
- residual activity [1]: have residual activity
- melon aphids killed [2]: 100%
- vapor pressure [3]: 70×10^−5 mm Hg

Compound: CCN(CC)c1cccc(C)c1 [N,N-diethyl-m-toluamine, reference compound]
- vapor pressure [3]: 167×10^−5 mm Hg
